# Results published in patent publication US20130317053A1, “EXTERNALLY-USED DRUG FOR TREATING SKIN DISORDER AND METHOD FOR PRODUCING SAME” (OSAKA UNIVERSITY, priority 2011, published 2013).
# Legend:
# TYR = assay: expression level of mRNA of TYR in melanocytes (real-time RT-PCR); type: cell-based
# Method: (§1) 1.4×10^5 melanocytes were inoculated in wells of 6-well culture plate, and a medium 254 (produced by KURABO […] LTD.; M254500) was added to the wells. Subsequently, the plate was incubated for 24 hours at a temperature of 37° C. in a 5% CO2 environment.
# (§2) Sirolimus was added to the respective wells so as to have a final concentration of 0 nM (that is, no sirolimus is added to a culture medium), 1 nmol/L, 10 nmol/L, and 20 nmol/L, respectively. The plates were incubated for 24 hours or 48 hours at a temperature of 37° C. in a 5% CO2 environment.
# (§3) From the wells thus incubated, the medium 254 was removed. Then, an operation of adding PBS to the wells and removing the PBS from the wells was carried out three times to wash the melanocytes with the PBS.
# (§4) To the wells from which the PBS had been removed, 175 μL of an RNA lysis buffer was added. The RNA lysis buffer is attached to a kit of an SV Total RNA Solution System (manufactured by Promega Corporation; Z3105).
# (§5) Melanocytes were peeled off the plate with use of a cell scraper.
# (§6) The RNA lysis buffer containing melanocytes was collected into a 1.5 mL Eppendorf tube. Then, RNAs were extracted from the collected buffer.
# (§7) Real-time RT-PCR was carried out with use of the RNAs to detect expression of mRNAs of MITF, mRNAs of TYR, mRNAs of TYRP1, and mRNAs of GAPDH. An expression level of the mRNAs of MITF, an expression level of the mRNAs of TYR, and an expression level of the mRNAs of TYRP1 were each calculated as a relative expression level with respect to an expression level of the mRNA of GAPD.
# (§8) This experiment was carried out three times to calculate an average value and a standard deviation of relative expression levels of mRNAs of each of MITF, TYR, and TYRP1. Whether or not there was a statistically significant difference between test results obtained with use of the respective external medicines was checked by calculating a p value with use of a Student's t-test having no correspondence. In a case where the p value was less than 0.05, a statistically significant difference was recognized.
# (§9) To detect expression of the mRNAs of MITF, TagMan® Gene Expression Assays (produced by Applied biosystems, Inc.; Hs00165156_m1) was used. To detect expression of the mRNAs of TYR, TagMan® Gene Expression Assays (produced by Applied biosystems, Inc.; Hs00165976_m1). To detect expression of the mRNAs of TYRP1, TagMan® Gene Expression Assays (produced by Applied biosystems, Inc.; Hs00167051_m1) was used. To detect expression of the mRNAs of GAPDH, TagMan® Gene Expression Assays (produced by Applied biosystems, Inc.; Hs99999905_m1) was used.
# VEGF [1] = assay: inhibition of VEGF expression in human fibroblast; type: cell-based; settings: 20 nM, 72 hours
# Method: (§10) A cell of angiofibroma, a human fibroblast, and HaCat, each of which was isolated from a patient with tuberous sclerosis complex, were used. Isolation of the cell of angiofibroma was carried out by removing angiofibroma from a patient who wished the angiofibroma to be removed and then using the primary culturing method. […] HaCat was purchased from German Cancer Research Center (dkfz). The cells obtained from the respective patients were used with the patients' consent.
# (§11) The cell of angiofibroma, the human fibroblast, and HaCat were each cultured with use of a DME culture medium at a temperature of 37° C. in a 5% CO2 environment. During the culture of these cells, sirolimus was added to each of the culture mediums so as to have a final concentration of 0 nM (that is, no sirolimus is added to a culture medium (a control)), 1 nM, 10 nM, or 20 nM. The cells were each incubated again at a temperature of 37° C. in a 5% CO2 environment, and a culture supernatant was collected […] after sirolimus was added. A concentration of VEGF in the collected culture supernatant was measured with use of a kit (Quantikine® Human VEGF manufactured by R&D SYSTEMS®) for detecting VEGF.
# TYRP1 = assay: expression level of mRNA of TYRP1 in melanocytes (real-time RT-PCR); type: cell-based
# Method: as §1, §2, §3, §4, §5, §6, §7, §8, §9
# MITF = assay: expression level of mRNA of MITF in melanocytes (real-time RT-PCR); type: cell-based
# Method: as §1, §2, §3, §4, §5, §6, §7, §8, §9
# VEGF [2] = assay: inhibition of VEGF expression in cell of angiofibroma; type: cell-based, human
# Method: as §10, §11
# VEGF [3] = assay: inhibition of VEGF expression in HaCat; type: cell-based; settings: 20 nM, 72 hours
# Method: as §10, §11
compound,measurement,setting,value
CO[C@H]1C[C@@H]2CC[C@@H](C)[C@@](O)(O2)C(=O)C(=O)N2CCCC[C@H]2C(=O)O[C@H]([C@H](C)C[C@@H]2CC[C@@H](O)[C@H](OC)C2)CC(=O)[C@H](C)/C=C(\C)[C@@H](O)[C@@H](OC)C(=O)[C@H](C)C[C@H](C)/C=C/C=C/C=C/1C [sirolimus],relative expression levels of TYR,"TYR; 1 nM, 24 hours, untreated 24 h 0.640±0.036",0.820±0.047
same,relative expression levels of TYR,"TYR; 1 nM, 48 hours, untreated 48 h 0.771±0.009",0.760±0.044
same,relative expression levels of TYR,"TYR; 20 nM, 24 hours, untreated 24 h 0.640±0.036",0.921±0.029
same,relative expression levels of TYR,"TYR; 20 nM, 48 hours, untreated 48 h 0.771±0.009",0.858±0.022
same,concentration of VEGF decreased to (% of untreated),VEGF [1],about 30%
same,rate of decrease in concentration of VEGF (ratio treated/untreated),VEGF [1],0.336
same,concentration of VEGF in culture supernatant,VEGF [1]; control 1492.7,501.3 pg/mL
same,relative expression levels of TYRP,"TYRP1; 1 nM, 24 hours, untreated 24 h 1.031±0.027",1.333±0.055
same,relative expression levels of TYRP,"TYRP1; 1 nM, 48 hours, untreated 48 h 1.338±0.029",1.450±0.028
same,relative expression levels of TYRP,"TYRP1; 20 nM, 24 hours, untreated 24 h 1.031±0.027",1.652±0.031
same,relative expression levels of TYRP,"TYRP1; 20 nM, 48 hours, untreated 48 h 1.338±0.029",1.514±0.124
same,relative expression levels of MITF,"MITF; 1 nM, 24 hours, relative to GAPDH, untreated 24 h 100.00±3.37",152.48±3.47
same,relative expression levels of MITF,"MITF; 1 nM, 48 hours, untreated 48 h 107.95±1.38",129.41±3.43
same,relative expression levels of MITF,"MITF; 20 nM, 24 hours, untreated 24 h 100.00±3.37",152.18±14.75
same,relative expression levels of MITF,"MITF; 20 nM, 48 hours, untreated 48 h 107.95±1.38",141.56±3.52
same,concentration of VEGF in culture supernatant,"VEGF [2]; 1 nM, 48 hours, untreated 260.2857",113.1428 pg/mL
same,concentration of VEGF in culture supernatant,"VEGF [2]; 10 nM, 48 hours, untreated 260.2857",92.4285 pg/mL
same,concentration of VEGF decreased to (% of untreated),"VEGF [2]; 20 nM, 72 hours",about 20%
same,rate of decrease in concentration of VEGF (ratio treated/untreated),"VEGF [2]; 20 nM, 72 hours",0.196
same,concentration of VEGF in culture supernatant,"VEGF [2]; 20 nM, 72 hours, control 858.4",168 pg/mL
same,concentration of VEGF decreased to (% of untreated),VEGF [3],about 40%
same,rate of decrease in concentration of VEGF (ratio treated/untreated),VEGF [3],0.405
same,concentration of VEGF in culture supernatant,VEGF [3]; control 1849.9,749.9 pg/mL
